Reference: patent publication US20130317037A1, “METHOD OF ADMINISTRATION AND TREATMENT” (GlaxoSmithKline Intellectual Property Development Limited, priority 2010, published 2013)
Where two headings read alike, the source gives them in different places.

Assays:
Assay type in all cases: cell-based, human
Conditions in all cases: for IC50: Homo sapiens
[1] = test system: MDA-MB-231; experiment: Panel A proliferation assay (CellTiter-Glo); HER2 2 copies, KRAS p.G13D, PIK3CA WT
Procedure: (§1) A total of 15 breast cancer cell lines were used in this study. […] Cells of each line were seeded into a 384-well microtiter plate at two cell densities. Low density ranges were 300-1800 cells/well, and a high density was 600 to 3600 cells/well). The plating density was determined by the rate of proliferation of the cell line in the absence of any inhibitor and varied amongst cell lines. High plating densities were double that of low density. Each cell density was plated in triplicate. […] In addition, there were 24 wells of dimethyl sulfoxide (DMSO)-treated controls at each density. After seeding, the cells were incubated at 37° C. in 5% CO2 for 24 hours. […] After a 72 h incubation, an equal volume of the CellTiter-Glo (CellTiter-Glo Luminescent Cell Viability Assay, Promega, Madison, Wis.) to that of the cell culture medium was added into each well of the plate. After the contents were mixed to induce cell lysis and stabilization, cell luminescence was recorded using a SpectraMax M5^e (Molecular Devices, Sunnyvale, Calif., USA)
(§2) Specifically, the midpoint of the growth window (the gIC50) falls half way between the number of cells at the time of compound addition (T=0) and the growth of control cells treated with DMSO. The gIC50 value serves as a metric for measuring the inhibition of proliferation in cancer cells. The curves for each seeding density for each cell line were manually inspected for both data quality and appropriateness of curve fitting. Where the starting data were poor the curve and subsequent gIC50s were excluded from further analysis. Cell line seedings were considered of poor quality when the r^2 value of the fitted curve was <0.75. Finally, where data quality permits, the Ymin values (defined as the maximum growth inhibition relative to the cell density at Time-zero) were calculated as a measure of cytotoxicity where data were of reasonable quality.

[2] = test system: HCC1954; experiment: Panel A proliferation assay (CellTiter-Glo); HER2 Gain ≧5, KRAS WT, PIK3CA p.H1047R
Procedure: (§3) A total of 15 breast cancer cell lines were used in this study. These cells were cultured in RPMI-1640 and supplemented with 5% or 10% fetal bovine serum, 2 mM GlutaMAX™ and 1 mM sodium pyruvate, or in growth medium recommended by the suppliers [American Type Culture Collection, Manassas, Va., USA; Developmental Therapeutics Program, National Cancer Institute, Bethesda, Md., USA; German Collection of Microorganisms and Cell Cultures (DSMZ), Braunschweig, Germany; European Collection of Cell Cultures (ECACC), Porton Down, UK]. Cells of each line were seeded into a 384-well microtiter plate at two cell densities. Low density ranges were 300-1800 cells/well, and a high density was 600 to 3600 cells/well). The plating density was determined by the rate of proliferation of the cell line in the absence of any inhibitor and varied amongst cell lines. High plating densities were double that of low density. Each cell density was plated in triplicate. In total there were 30 wells to be treated with increasing concentrations of Compound B for each cell line at each density. In addition, there were 24 wells of dimethyl sulfoxide (DMSO)-treated controls at each density. After seeding, the cells were incubated at 37° C. in 5% CO2 for 24 hours. Subsequently, Compound B was added to each cell line with 10 concentrations. The dosing solution of Compound B was first prepared in DMSO at a master stock concentration of 10 mM. […] were then made of the stock solution to give a range of working stock concentrations; 10.00 mM, 3.164 mM, 1.001 mM, 316.9 μM, 100.3 μM, 31.74 μM, 10.04 μM, 3.178 μM, 1.006 μM and 318.3 nM. The working stock concentrations of Compound B were then dispensed into the seeded cancer cell lines using a Biomek FX liquid handler to give final treatment concentrations of 0.1% of the stock concentration. A similar volume of DMSO without Compound B was dispensed into the 24 control wells of each seeding density at a concentration of 0.1%. Also, a zero-time plate prepared with a similar cell seeding was read for each cell line at each seeding density immediately after the addition of the DMSO control. After a 72 h incubation, an equal volume of the CellTiter-Glo (CellTiter-Glo Luminescent Cell Viability Assay, Promega, Madison, Wis.) to that of the cell culture medium was added into each well of the plate. After the contents were mixed to induce cell lysis and stabilization, cell luminescence was recorded using a SpectraMax M5^e (Molecular Devices, Sunnyvale, Calif., USA)
(§4) The luminescence of Compound B treated cells was compared relative to the average of the 24 DMSO-treated control wells at each cell density for every concentration of Compound B for all triplicate wells. The percent intensity values were used in model 205 of XLfit in Microsoft Excel to calculate gIC50s for the low and high seeding density (a 4 parameter logistical fit). Specifically, the midpoint of the growth window (the gIC50) falls half way between the number of cells at the time of compound addition (T=0) and the growth of control cells treated with DMSO. The gIC50 value serves as a metric for measuring the inhibition of proliferation in cancer cells. […] Finally, where data quality permits, the Ymin values (defined as the maximum growth inhibition relative to the cell density at Time-zero) were calculated as a measure of cytotoxicity where data were of reasonable quality.

[3] = test system: MCF7; experiment: Panel A proliferation assay (CellTiter-Glo); HER2 Loss 1 copy, KRAS WT, PIK3CA p.E545K
Procedure: as §3, §4

[4] = test system: KPL-1; experiment: Panel A proliferation assay (CellTiter-Glo); HER2 2 copies, KRAS WT, PIK3CA p.E545K
Procedure: as §1, §2

[5] = test system: MDA-MB-175-VII; experiment: Panel A proliferation assay (CellTiter-Glo); HER2 2 copies, KRAS WT, PIK3CA WT
Procedure: as §3
(§5) The luminescence of Compound B treated cells was compared relative to the average of the 24 DMSO-treated control wells at each cell density for every concentration of Compound B for all triplicate wells. The percent intensity values were used in model 205 of XLfit in Microsoft Excel to calculate gIC50s for the low and high seeding density (a 4 parameter logistical fit). Specifically, the midpoint of the growth window (the gIC50) falls half way between the number of cells at the time of compound addition (T=0) and the growth of control cells treated with DMSO. The gIC50 value serves as a metric for measuring the inhibition of proliferation in cancer cells. The curves for each seeding density for each cell line were manually inspected for both data quality and appropriateness of curve fitting. Where the starting data were poor the curve and subsequent gIC50s were excluded from further analysis. Cell line seedings were considered of poor quality when the r^2 value of the fitted curve was <0.75. Finally, where data quality permits, the Ymin values (defined as the maximum growth inhibition relative to the cell density at Time-zero) were calculated as a measure of cytotoxicity where data were of reasonable quality.

[6] = test system: ZR-75-1; experiment: as above
Procedure: as §3, §5

Compound: COc1ncc(-c2ccc3nccc(-c4ccnnc4)c3c2)cc1NS(=O)(=O)c1ccc(F)cc1F [Compound B, 2,4-difluoro-N-{2-(methyloxy)-5-[4-(4-pyridazinyl)-6-quinolinyl]-3-pyridinyl}benzenesulfonamide]
- IC50 ([1]; MDA-MB-231, high seeding density, 72 h, read-out: High Density gIC50): 357 nM
- IC50 ([1]; MDA-MB-231, low seeding density, 72 h, read-out: Low Density gIC50): 97.1 nM
- IC50 ([1]; MDA-MB-231, mean of low and high density, read-out: Mean gIC50): 227 nM
- High Density Y-Min ([1]; MDA-MB-231, high density, % of cells at T = 0): 357.2%
- Low Density Y-Min ([1]; MDA-MB-231, low density, % of cells at T = 0): 189.1%
- High Density Y-Min ([2]; HCC1954, high density, % of cells at T = 0): 18.3%
- Low Density Y-Min ([2]; HCC1954, low density, % of cells at T = 0): 19.8%
- IC50 ([2]; HCC1954, high seeding density, 72 h, read-out: High Density gIC50): 3.4 nM
- IC50 ([2]; HCC1954, low seeding density, 72 h, read-out: Low Density gIC50): 3 nM
- IC50 ([2]; HCC1954, mean of low and high density, read-out: Mean gIC50): 3.2 nM
- IC50 ([3]; MCF7, high seeding density, 72 h, read-out: High Density gIC50): 1.1 nM
- IC50 ([3]; MCF7, low seeding density, 72 h, read-out: Low Density gIC50): 2.5 nM
- IC50 ([3]; MCF7, mean of low and high density, read-out: Mean gIC50): 1.8 nM
- High Density Y-Min ([3]; MCF7, high density, % of cells at T = 0): 82.2%
- Low Density Y-Min ([3]; MCF7, low density, % of cells at T = 0): 78.5%
- IC50 ([4]; KPL-1, high seeding density, 72 h, read-out: High Density gIC50): 2.7 nM
- IC50 ([4]; KPL-1, low seeding density, 72 h, read-out: Low Density gIC50): 2 nM
- IC50 ([4]; KPL-1, mean of low and high density, read-out: Mean gIC50): 2.35 nM
- High Density Y-Min ([4]; KPL-1, high density, % of cells at T = 0): 130.2%
- Low Density Y-Min ([4]; KPL-1, low density, % of cells at T = 0): 126.6%
- IC50 ([5]; high seeding density, 72 h, read-out: High Density gIC50): 1.1 nM
- IC50 ([5]; low seeding density, 72 h, read-out: Low Density gIC50): 1.7 nM
- IC50 ([5]; mean of low and high density, read-out: Mean gIC50): 1.4 nM
- High Density Y-Min ([5]; high density, % of cells at T = 0): 12.2%
- Low Density Y-Min ([5]; low density, % of cells at T = 0): 19.8%
- IC50 ([6]; ZR-75-1, high seeding density, 72 h, read-out: High Density gIC50): 0.9 nM
- IC50 ([6]; ZR-75-1, low seeding density, 72 h, read-out: Low Density gIC50): 0.8 nM
- IC50 ([6]; ZR-75-1, mean of low and high density, read-out: Mean gIC50): 0.85 nM
- High Density Y-Min ([6]; ZR-75-1, high density, % of cells at T = 0): 22.1%
- Low Density Y-Min ([6]; ZR-75-1, low density, % of cells at T = 0): 19.8%
